Measured values as given in PubChem BioAssay (NCI).
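Method: 48-hour compound exposure of cells in 96-well plates, five concentrations, linear interpolation of endpoints. TGI: concentration producing complete growth inhibition.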

How the values were obtained:
Experiment in all cases: DTP human tumour cell line panel, 48 h
786-0 renal = test system: 786-0 renal
A498 renal = test system: A498 renal
A549 NSCLC = test system: A549 NSCLC
ACHN renal = test system: ACHN renal
BT-549 breast = test system: BT-549 breast
CAKI-1 renal = test system: CAKI-1 renal
CCRF-CEM leukemia = test system: CCRF-CEM leukemia
COLO 205 colon = test system: COLO 205 colon
DU-145 prostate = test system: DU-145 prostate
EKVX NSCLC = test system: EKVX NSCLC
HCT-116 colon = test system: HCT-116 colon
HCT-15 colon = test system: HCT-15 colon
HL-60(TB) leukemia = test system: HL-60(TB) leukemia
HOP-62 NSCLC = test system: HOP-62 NSCLC
HS 578T breast = test system: HS 578T breast
HT29 colon = test system: HT29 colon
IGROV1 ovarian = test system: IGROV1 ovarian
K-562 leukemia = test system: K-562 leukemia
KM12 colon = test system: KM12 colon
LOX IMVI melanoma = test system: LOX IMVI melanoma
M14 melanoma = test system: M14 melanoma
MALME-3M melanoma = test system: MALME-3M melanoma
MCF7 breast = test system: MCF7 breast
MDA-MB-231 breast = test system: MDA-MB-231 breast
MDA-MB-435 = test system: MDA-MB-435
MDA-N = test system: MDA-N
MOLT-4 leukemia = test system: MOLT-4 leukemia
NCI-H226 lung = test system: NCI-H226 lung
NCI-H23 lung = test system: NCI-H23 lung
NCI-H460 lung = test system: NCI-H460 lung
NCI-H522 lung = test system: NCI-H522 lung
NCI/ADR-RES ovarian = test system: NCI/ADR-RES ovarian
OVCAR-3 ovarian = test system: OVCAR-3 ovarian
OVCAR-4 ovarian = test system: OVCAR-4 ovarian
OVCAR-5 ovarian = test system: OVCAR-5 ovarian
OVCAR-8 ovarian = test system: OVCAR-8 ovarian
PC-3 prostate = test system: PC-3 prostate
RPMI-8226 leukemia = test system: RPMI-8226 leukemia
RXF 393 renal = test system: RXF 393 renal
SF-268 CNS = test system: SF-268 CNS
SF-295 CNS = test system: SF-295 CNS
SK-MEL-2 melanoma = test system: SK-MEL-2 melanoma
SK-MEL-28 melanoma = test system: SK-MEL-28 melanoma
SK-MEL-5 melanoma = test system: SK-MEL-5 melanoma
SN12C renal = test system: SN12C renal
SNB-19 CNS = test system: SNB-19 CNS
SW-620 colon = test system: SW-620 colon
T-47D breast = test system: T-47D breast
TK-10 renal = test system: TK-10 renal
U251 CNS = test system: U251 CNS
UACC-257 melanoma = test system: UACC-257 melanoma
UACC-62 melanoma = test system: UACC-62 melanoma
UO-31 renal = test system: UO-31 renal

Measured: TGI

Cc1ccc2c(=O)c(-c3nnsn3)c[nH]c2n1
> 100 µM: all assays above
